Converted amounts (≈) assume the structure as drawn. The source made the active and inactive calls. No cut-off for these calls is given here.
Columns and labels:
[1] = target: T1, C-X-C chemokine receptor type 3 (Homo sapiens, UniProt P49682); experiment: Antagonist activity at CXCR3 (unknown origin) in human T cells in venous blood assessed as receptor internalization incubated for 30 mins in presence of CXCL10 by flow cytometric analysis; type: cell-based, T cell
T1 sequence (P49682 whole entry): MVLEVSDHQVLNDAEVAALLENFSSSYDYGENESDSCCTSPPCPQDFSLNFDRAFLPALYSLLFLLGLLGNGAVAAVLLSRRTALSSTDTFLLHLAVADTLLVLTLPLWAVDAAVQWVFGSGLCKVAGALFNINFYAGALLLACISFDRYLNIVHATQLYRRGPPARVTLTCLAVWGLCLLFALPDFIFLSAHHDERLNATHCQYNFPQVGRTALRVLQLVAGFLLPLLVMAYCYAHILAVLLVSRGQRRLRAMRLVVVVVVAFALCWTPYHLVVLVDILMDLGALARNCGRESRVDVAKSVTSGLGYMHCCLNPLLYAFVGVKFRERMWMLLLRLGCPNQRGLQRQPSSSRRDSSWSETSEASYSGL

[2] = target: CYP2D6 (Homo sapiens, UniProt P10635); experiment: […] recombinant human CYP2D6 mediated drug metabolism in human liver microsomes assessed as intrinsic clearance at 1 uM incubated for 45 mins in presence of NADPH regenerating system by LC-MS/MS analysis; type: ADME, Microsome; conditions: recombinant human CYP2D6, read-out: CLH
Chain of CYP2D6 (P10635 whole entry): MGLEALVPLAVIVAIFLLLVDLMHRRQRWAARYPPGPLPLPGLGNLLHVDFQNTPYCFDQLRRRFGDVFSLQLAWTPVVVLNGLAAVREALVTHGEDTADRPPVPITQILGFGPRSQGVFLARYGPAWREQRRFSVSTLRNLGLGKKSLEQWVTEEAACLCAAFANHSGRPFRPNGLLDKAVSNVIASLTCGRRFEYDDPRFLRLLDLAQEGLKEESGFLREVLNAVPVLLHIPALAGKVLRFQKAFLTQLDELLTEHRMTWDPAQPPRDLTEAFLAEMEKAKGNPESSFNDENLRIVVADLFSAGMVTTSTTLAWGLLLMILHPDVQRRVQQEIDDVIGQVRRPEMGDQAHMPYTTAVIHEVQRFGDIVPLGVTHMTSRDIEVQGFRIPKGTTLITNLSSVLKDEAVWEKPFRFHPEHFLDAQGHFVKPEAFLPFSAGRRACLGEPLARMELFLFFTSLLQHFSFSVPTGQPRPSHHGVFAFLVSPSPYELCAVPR

[3] = Protein binding in human plasma assessed as fraction unbound at 1 uM incubated for 6 hrs by rapid equilibrium dialysis based LC-MS/MS analysis; type: ADME, cell-free
[4] = Protein binding in dog plasma assessed as fraction unbound at 1 uM incubated for 6 hrs by rapid equilibrium dialysis based LC-MS/MS analysis; type: ADME, cell-free, Canis lupus familiaris
[5] = Metabolic stability in dog liver microsomes assessed as intrinsic clearance at 1 uM and measured upto 15 mins in presence of NADPH regenerating system by LC-MS/MS analysis; type: ADME, Canis lupus familiaris, Microsome; conditions: read-out: CLH
[6] = target: T1, C-X-C chemokine receptor type 3; experiment: Antagonist activity at human CXCR3 expressed in CHO-K1 cells assessed as reduction in CXCL10 induced calcium flux by FLIPR method; type: cell-based
[7] = target: C-X-C chemokine receptor type 3 (Rattus norvegicus, UniProt Q9JII9); experiment: Antagonist activity at rat CXCR3 expressed in CHO-K1 cells assessed as reduction in CXCL10 induced calcium flux by FLIPR method; type: cell-based
Chain of C-X-C chemokine receptor type 3 (Rattus norvegicus, UniProt Q9JII9) (Q9JII9 whole entry): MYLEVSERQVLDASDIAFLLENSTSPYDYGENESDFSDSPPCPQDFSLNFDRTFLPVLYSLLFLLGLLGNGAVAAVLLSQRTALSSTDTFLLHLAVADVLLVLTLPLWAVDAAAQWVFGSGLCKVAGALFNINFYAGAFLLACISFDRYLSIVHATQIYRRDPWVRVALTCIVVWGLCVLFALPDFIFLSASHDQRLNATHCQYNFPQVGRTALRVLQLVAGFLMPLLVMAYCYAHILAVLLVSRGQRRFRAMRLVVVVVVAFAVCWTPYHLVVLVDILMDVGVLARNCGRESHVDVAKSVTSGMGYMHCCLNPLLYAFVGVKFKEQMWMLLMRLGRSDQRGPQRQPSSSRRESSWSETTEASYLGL

[8] = target: C-X-C chemokine receptor type 3 (Canis lupus familiaris, UniProt Q5KSK8); experiment: Antagonist activity at dog CXCR3 expressed in CHO-K1 cells assessed as reduction in CXCL10 induced calcium flux by FLIPR method; type: cell-based
Chain of C-X-C chemokine receptor type 3 (Canis lupus familiaris, UniProt Q5KSK8) (Q5KSK8 whole entry): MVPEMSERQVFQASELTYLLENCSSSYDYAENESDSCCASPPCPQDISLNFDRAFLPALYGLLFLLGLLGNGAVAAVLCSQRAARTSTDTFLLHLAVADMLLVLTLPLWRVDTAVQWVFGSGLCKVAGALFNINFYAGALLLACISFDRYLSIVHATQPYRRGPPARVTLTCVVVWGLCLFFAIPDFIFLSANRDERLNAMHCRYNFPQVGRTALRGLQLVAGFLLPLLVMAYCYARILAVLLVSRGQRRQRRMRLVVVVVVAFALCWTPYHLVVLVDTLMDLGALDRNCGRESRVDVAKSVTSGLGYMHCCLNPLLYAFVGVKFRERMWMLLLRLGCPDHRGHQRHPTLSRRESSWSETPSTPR

[9] = target: T2, C-X-C chemokine receptor type 3 (Homo sapiens) (UniProt P49682); experiment: Binding affinity to human CXCR3 expressed in CHO-K1 cell membrane assessed as dissociation rate constant (koff) using tritium-labeled ligand by […] assay; type: cell membranes; conditions: filed as antagonist
T2 sequence (whole entry): T1 sequence (P49682 whole entry)

[10] = target: fMet-Leu-Phe receptor (Homo sapiens) (UniProt P21462); experiment: Binding affinity to FPR1 (unknown origin) at 10 uM by radioligand binding assay
Chain of fMet-Leu-Phe receptor (Homo sapiens) (P21462 whole entry): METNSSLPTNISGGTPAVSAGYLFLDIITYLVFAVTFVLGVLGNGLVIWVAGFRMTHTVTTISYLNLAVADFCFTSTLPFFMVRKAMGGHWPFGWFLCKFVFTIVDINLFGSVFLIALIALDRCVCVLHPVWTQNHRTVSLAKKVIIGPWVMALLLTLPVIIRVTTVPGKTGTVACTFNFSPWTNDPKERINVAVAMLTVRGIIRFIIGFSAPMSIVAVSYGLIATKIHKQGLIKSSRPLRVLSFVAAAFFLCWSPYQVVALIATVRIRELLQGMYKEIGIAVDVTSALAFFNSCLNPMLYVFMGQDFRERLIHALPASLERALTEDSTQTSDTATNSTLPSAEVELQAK

[11] = target: N-formyl peptide receptor 2 (Homo sapiens) (UniProt P25090); experiment: Binding affinity to FPR2 (unknown origin) at 10 uM by radioligand binding assay
Chain of N-formyl peptide receptor 2 (Homo sapiens) (P25090 whole entry): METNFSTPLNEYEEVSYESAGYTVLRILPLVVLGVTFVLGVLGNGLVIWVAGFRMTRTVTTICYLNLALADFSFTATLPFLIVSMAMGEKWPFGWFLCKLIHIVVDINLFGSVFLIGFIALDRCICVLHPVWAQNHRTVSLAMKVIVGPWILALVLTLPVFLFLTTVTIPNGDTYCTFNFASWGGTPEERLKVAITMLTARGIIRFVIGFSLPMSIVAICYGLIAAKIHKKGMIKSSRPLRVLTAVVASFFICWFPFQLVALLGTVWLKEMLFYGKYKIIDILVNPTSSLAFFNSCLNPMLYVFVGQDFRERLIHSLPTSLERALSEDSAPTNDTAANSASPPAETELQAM

[12] = target: Chemerin-like receptor 1 (Homo sapiens) (UniProt Q99788); experiment: Binding affinity to ChemR23 (unknown origin) at 10 uM by radioligand binding assay
Chain of Chemerin-like receptor 1 (Homo sapiens) (Q99788 whole entry): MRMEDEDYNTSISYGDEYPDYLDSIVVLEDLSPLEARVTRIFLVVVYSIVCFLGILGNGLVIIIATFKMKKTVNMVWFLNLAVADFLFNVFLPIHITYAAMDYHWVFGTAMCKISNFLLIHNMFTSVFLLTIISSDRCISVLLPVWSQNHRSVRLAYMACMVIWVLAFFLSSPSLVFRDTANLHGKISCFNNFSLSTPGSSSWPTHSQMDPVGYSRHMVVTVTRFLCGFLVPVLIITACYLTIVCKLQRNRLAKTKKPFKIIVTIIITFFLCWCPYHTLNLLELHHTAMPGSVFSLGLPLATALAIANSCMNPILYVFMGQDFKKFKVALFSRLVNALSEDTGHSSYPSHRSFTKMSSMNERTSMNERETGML

[13] = Cmax in LPS-induced DBA/1 mouse plasma at 0.02 microg/g, po bid preincubated for 3 days followed by LPS stimulation for 30 mins and measured after 72 hrs by flow cytometry; type: ADME, organism-based; set-up: time 6 day, dose 0.02 µg/g, route po; conditions: 0.02 µg/g
[14] = Cmax in LPS-induced DBA/1 mouse plasma at 0.06 microg/g, po bid preincubated for 3 days followed by LPS stimulation for 30 mins and measured after 72 hrs by flow cytometry; type: ADME, organism-based; set-up: time 6 day, dose 0.06 µg/g, route po; conditions: 0.06 µg/g
[15] = Solubility of compound in FaSSIF at 37 degreeC; type: ADME
[16] = Solubility of compound in FeSSIF at 37 degreeC; type: ADME
[17] = Dissociation constant, pKa of compound; type: physicochemical
[18] = target: Cytochrome P450 3A4 (Homo sapiens, UniProt P08684); experiment: Competitive inhibition of CYP3A4 (unknown origin); type: ADME
Chain of Cytochrome P450 3A4 (P08684 whole entry): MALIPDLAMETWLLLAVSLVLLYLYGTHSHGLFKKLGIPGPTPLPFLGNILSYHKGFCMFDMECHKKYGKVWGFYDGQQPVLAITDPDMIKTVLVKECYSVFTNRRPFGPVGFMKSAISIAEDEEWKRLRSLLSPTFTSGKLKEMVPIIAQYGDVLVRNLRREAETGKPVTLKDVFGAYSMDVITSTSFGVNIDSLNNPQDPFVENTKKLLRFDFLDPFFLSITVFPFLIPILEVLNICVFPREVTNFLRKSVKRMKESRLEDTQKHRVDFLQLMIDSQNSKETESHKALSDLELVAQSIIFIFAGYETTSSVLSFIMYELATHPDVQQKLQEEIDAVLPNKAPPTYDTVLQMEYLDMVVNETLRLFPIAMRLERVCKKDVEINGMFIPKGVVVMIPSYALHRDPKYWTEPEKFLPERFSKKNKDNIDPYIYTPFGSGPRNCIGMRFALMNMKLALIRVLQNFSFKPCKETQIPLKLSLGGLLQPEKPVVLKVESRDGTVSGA

[19] = target: Cytochrome P450 2D6 (Homo sapiens, UniProt P10635); experiment: Time dependent inhibition of CYP2D6 (unknown origin); type: ADME
Chain of Cytochrome P450 2D6 (P10635 whole entry): as the sequence (P10635 whole entry) above

[20] = target: Solute carrier organic anion transporter family member 1B1 (Homo sapiens, UniProt Q9Y6L6); experiment: Inhibition of human OATP1B1; type: ADME
Chain of Solute carrier organic anion transporter family member 1B1 (Q9Y6L6 whole entry): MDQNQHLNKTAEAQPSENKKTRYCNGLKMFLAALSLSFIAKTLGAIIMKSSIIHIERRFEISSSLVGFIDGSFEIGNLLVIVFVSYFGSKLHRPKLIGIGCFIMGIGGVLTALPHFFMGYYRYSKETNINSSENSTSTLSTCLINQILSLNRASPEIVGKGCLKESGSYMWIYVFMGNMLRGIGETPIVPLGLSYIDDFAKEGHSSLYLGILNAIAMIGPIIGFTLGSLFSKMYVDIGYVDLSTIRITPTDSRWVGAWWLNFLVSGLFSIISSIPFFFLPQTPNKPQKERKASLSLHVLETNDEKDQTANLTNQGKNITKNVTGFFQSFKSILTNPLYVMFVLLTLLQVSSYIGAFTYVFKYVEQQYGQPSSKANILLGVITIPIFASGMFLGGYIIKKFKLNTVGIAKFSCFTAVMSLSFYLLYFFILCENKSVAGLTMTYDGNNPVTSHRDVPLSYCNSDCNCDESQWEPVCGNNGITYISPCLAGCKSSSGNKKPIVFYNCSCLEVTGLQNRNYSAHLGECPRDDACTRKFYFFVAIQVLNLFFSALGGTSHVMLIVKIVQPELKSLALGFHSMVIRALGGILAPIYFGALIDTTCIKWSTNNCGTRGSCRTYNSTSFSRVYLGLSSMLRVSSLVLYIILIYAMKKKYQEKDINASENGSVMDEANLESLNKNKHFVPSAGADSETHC

[21] = target: Solute carrier organic anion transporter family member 1B3 (Homo sapiens, UniProt Q9NPD5); experiment: Inhibition of human OATP1B3; type: ADME
Chain of Solute carrier organic anion transporter family member 1B3 (Q9NPD5 whole entry): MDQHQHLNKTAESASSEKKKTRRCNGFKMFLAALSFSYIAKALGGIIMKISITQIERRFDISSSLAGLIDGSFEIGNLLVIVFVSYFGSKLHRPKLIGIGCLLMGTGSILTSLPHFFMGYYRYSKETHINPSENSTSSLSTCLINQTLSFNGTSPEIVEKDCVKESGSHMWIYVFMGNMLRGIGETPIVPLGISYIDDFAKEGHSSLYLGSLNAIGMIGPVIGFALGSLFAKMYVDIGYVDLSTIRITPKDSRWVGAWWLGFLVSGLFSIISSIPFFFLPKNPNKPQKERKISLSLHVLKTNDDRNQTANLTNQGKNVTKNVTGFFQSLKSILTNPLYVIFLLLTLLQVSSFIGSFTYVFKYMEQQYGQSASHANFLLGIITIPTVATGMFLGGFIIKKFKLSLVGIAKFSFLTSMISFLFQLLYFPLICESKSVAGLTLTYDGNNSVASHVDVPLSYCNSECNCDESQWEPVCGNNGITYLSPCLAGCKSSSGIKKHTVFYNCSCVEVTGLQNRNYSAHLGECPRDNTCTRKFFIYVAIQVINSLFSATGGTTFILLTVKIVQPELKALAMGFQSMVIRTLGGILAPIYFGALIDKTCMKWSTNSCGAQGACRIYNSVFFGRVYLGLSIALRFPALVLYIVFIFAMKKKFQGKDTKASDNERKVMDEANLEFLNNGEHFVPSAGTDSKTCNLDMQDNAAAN

[22] = Metabolic stability in human liver microsomes assessed as M3 metabolite formation at 1 uM and measured upto 15 mins in presence of NADPH regenerating system by LC-MS/MS analysis; type: ADME, Microsome; conditions: 0.25 h
[23] = Metabolic stability in rat hepatocyte assessed as M1 metabolite formation at 1 uM and measured upto 15 mins in presence of NADPH regenerating system by LC-MS/MS analysis; type: ADME, cell-based; conditions: hepatocytes, 0.25 h
[24] = Metabolic stability in dog hepatocyte assessed as M3 metabolite formation at 1 uM and measured upto 15 mins in presence of NADPH regenerating system by LC-MS/MS analysis; type: ADME, cell-based, Canis lupus familiaris; conditions: hepatocytes, 0.25 h
[25] = Metabolic stability in dog hepatocyte assessed as M1 metabolite formation at 1 uM and measured upto 15 mins in presence of NADPH regenerating system by LC-MS/MS analysis; type: ADME, cell-based, Canis lupus familiaris; conditions: hepatocytes, 0.25 h
[26] = Metabolic stability in dog hepatocyte assessed as M2 metabolite formation at 1 uM and measured upto 15 mins in presence of NADPH regenerating system by LC-MS/MS analysis; type: ADME, cell-based, Canis lupus familiaris; conditions: hepatocytes, 0.25 h
[27] = Metabolic stability in dog hepatocyte assessed as M4 metabolite formation at 1 uM and measured upto 15 mins in presence of NADPH regenerating system by LC-MS/MS analysis; type: ADME, cell-based, Canis lupus familiaris; conditions: hepatocytes, 0.25 h
[28] = AUC (0 to last) in Wistar rat at 3 mg/kg,iv or 3 mg/kg, po; type: ADME, organism-based; set-up: dose 3 mg/kg, route iv; conditions: in vivo
[29] = Tmax in Wistar rat at 3 mg/kg,iv or 3 mg/kg, po; type: ADME, organism-based; conditions: in vivo
[30] = AUC (0 to last) in Beagle dog at 2.5 mg/kg,iv or 2.5 mg/kg, po; type: ADME, organism-based, Canis lupus familiaris; set-up: dose 2.5 mg/kg, route iv; conditions: in vivo
[31] = Tmax in Beagle dog at 2.5 mg/kg,iv or 2.5 mg/kg, po; type: ADME, organism-based, Canis lupus familiaris; conditions: in vivo
[32] = Oral bioavailability in Beagle dog at 2.5 mg/kg; type: ADME, organism-based, Canis lupus familiaris; conditions: in vivo
[33] = Volume of distribution at steady state in Beagle dog at 2.5 mg/kg,iv or 2.5 mg/kg, po; type: ADME, organism-based, Canis lupus familiaris; conditions: in vivo, read-out: Vdss
[34] = Tmax in Cynomolgus monkey at 1.0 mg/kg,iv or 1.25 mg/kg, po; type: ADME, organism-based, Macaca fascicularis; conditions: in vivo
[35] = In vivo inhibition of hERG in po dosed dog assessed as increase in QTc interval; type: toxicity, organism-based, Canis lupus familiaris
[36] = In vivo inhibition of hERG in guinea pig assessed as increase in QTc interval at 27 ug/ml, iv; type: toxicity, organism-based, Cavia porcellus; conditions: at 27 µg/mL

- IC50 [1]: 56.3 nM
- microsomal CLint at 1 µM [2]: < 0.04 µL/min/mg
- fraction unbound at 6 h, 1 µM [3]: 0.23
- fraction unbound at 6 h, 1 µM [4]: 0.34
- microsomal CLint at 1 µM [5]: < 10 µL/min/mg
- IC50 [6]: 3.2 nM
- IC50 [7]: 2.2 nM
- IC50 [8]: 2.8 nM
- Kdiss [9]: 0.03 s⁻¹
- Activity [10]: inactive
- Activity [11]: inactive
- Activity [12]: inactive
- Cmax [13]: 173 ng/mL
- Cmax [14]: 559 ng/mL
- solubility [15]: 718 µg/mL (≈ 1300 µM)
- solubility [16]: 1250 µg/mL (≈ 2270 µM)
- pKa [17]: 2.2
- IC50 [18]: > 50000 nM
- IC50 [19]: > 50000 nM
- inhibition (INH) [20]: Not Active
- inhibition (INH) [21]: Not Active
- Stability [22]: Unstable
- Stability [23]: Unstable
- Stability [24]: Unstable
- Stability [25]: Unstable
- Stability [26]: Unstable
- Stability [27]: Unstable
- AUC(0-t) [28]: 4210 ng·h/mL
- Tmax [29]: 30 min
- AUC(0-t) [30]: 3910 ng·h/mL
- Tmax [31]: 24 min
- bioavailability [32]: 89%
- Vd [33]: 1.5 L/kg
- Tmax [34]: 90 min
SMILES: Cc1ncn(CC(=O)N2CCN(c3sc(C(F)(F)F)nc3-c3cnc(C(F)(F)F)nc3)C[C@H]2CCO)n1
- inhibition (INH) [35]: Toxic
- inhibition (INH) [36]: Toxic

From ChEMBL document CHEMBL5247653, “Discovery of Clinical Candidate ACT-777991, a Potent CXCR3 Antagonist for Antigen-Driven and Inflammatory Pathologies” (J Med Chem, 2023)
